Where two headings read alike, the source gives them in different places.
Legend:
[1] = Drug bioconcentration in zebrafish embryos, UV-visible spectroscopy; format: in vivo; details: whole embryo extract, 25 µM, incubation 25 µM, volume of measurement 100 µL, read-out: conc. in zebrafish embryos
Description: To get an approximation of the distribution and concentration of GAT1033 (the lipophilic compound) in the embryos, in the presence and absence of the chorion, we conducted a first analysis visualizing the embryos by laser scanning confocal microscopy. […] We then quantified the internal concentration of GAT1033 by UV-visible spectroscopy (Figure 9). To do this, we incubated embryos, with and without chorion, with a fixed dose of the compound for different extensions of time. After this, we performed a standard chemical extraction and quantified using spectrophotometry and checking the integrity of the molecules by thin layer chromatography.
Following the same conditions as those of the embryo toxicity test, five embryos were incubated per well in 6-well plates with 5 mL of 25 μM GAT1033. Embryos were incubated with and without chorion, starting at 6 hpf. The incubation medium containing the compound was exchanged daily. Every 24 h, 30 embryos having the same conditions were taken to extract the compound for quantitation. The embryos were washed three times with aquarium water and then centrifuged at low speed to pull out the total remaining solvent. The embryos were then resuspended in 1 mL of aquarium water and lysed by sonication (Omni Sonic Ruptor Omni Sonic Ruptor 400 Ultrasonic Homogenizer) on an ice bath with 4-times half-intensity-15-second pulses, resting 5 seconds. The extract was incubated with 1 mL of methanol/chloroform (2:1) for 5 min at 25 °C, followed by five chloroform extractions. The organic phase was dried over anhydrous sodium sulfate and evaporated in vacuo. The crude extract was dissolved in 100 µL acetonitrile (Merck, HPLC grade) for spectrophotometric measurements (Spectrophotometer double beam UV-Vis model Cary 60 Agilent Cary WinUV). The calibration curve and all of the experiments were performed with GAT1033 under the same conditions. For this, we used the Beer–Lambert–Bouguer Law (BLB law). Optical data for GAT1033 are: ε = (14.7 ± 0.5) cm^−1mM^−1, λmax = 379 nm, emission 530 nm.

[2] = tested on: NCTC929 fibroblasts; assay: Nonspecific cytotoxicity on fibroblasts, resazurin; format: cell-based; details: NCTC-929, 24 h; read-out: IC50 ± SD Fibroblast NCTC929
Outline: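 NCTC929 murine fibroblasts seeded 3.00 × 10^4 cells/well, grown overnight, then exposed to compounds for 24 h at 37 °C, 5% CO2. Viability read by resazurin reduction (3 h), dual-wavelength absorbance at 490 and 595 nm with background subtracted. Each concentration tested three times.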

[3] = tested on: L. infantum promastigotes; assay: Leishmanicidal activity on promastigotes, resazurin; format: cell-based, Leishmania infantum; details: Leishmania infantum, 48 h; read-out: IC50 ± SD Promastigotes L. infantum
Outline: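 Promastigotes (2 × 10^6/well) in Schneider's medium with 20% FBS treated with compound dilutions for 48 h at 26 °C. Resazurin reduction read at 570 and 600 nm; IC50 from duplicate experiments, triplicate concentrations.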

C=CCn1c(-c2ccc(Cl)cc2)cs\c1=N/N=C/C=C/c1ccco1 [GAT1033]
concentration at 24 h ([1]; with chorion): 0.3 µM | concentration at 48 h ([1]; with chorion): 4.8 µM | concentration at 72 h ([1]; with chorion): 1.8 µM | concentration at 24 h ([1]; without chorion): 0.4 µM | concentration at 48 h ([1]; without chorion): 7.3 µM | concentration at 72 h ([1]; without chorion): 8.1 µM | IC50 [2]: 405 ± 10 µM | IC50 [3]: 2 ± 0.2 µM

Source: PMC6154605, “Multi-Anti-Parasitic Activity of Arylidene Ketones and Thiazolidene Hydrazines against Trypanosoma cruzi and Leishmania spp” (Molecules : A Journal of Synthetic Chemistry and Natural …, 2017)
